Test results published in patent US12274686B2, “Specialized pro-resolving mediators (SPMs) as melanocyte growth promoter and pro-survival factors and uses thereof” (THE UNIVERSITY OF BRITISH COLUMBIA, priority 2021, dated 2025).

What was measured:
vitiligo patches = assay: Topical treatment of vitiligo patches refractory to topical anti-inflammatory therapies (single subject); assay type: in vivo, human; settings: for change in the size of the white areas: mometasone fumarate 0.1% cream BID (abdominal macule), clobetasol 0.05% cream OD (two patches right hand), 12 months
Description: Topical maresin 1 was tested on a person with a 5 year and 3 month history of developing two white patches on the dorsal right hand and one white macule on the right mid abdomen. […] There were no signs of inflammation such as redness, or presence of scales. There were no symptoms such as itchiness or pain. […] On examination, the subject appeared to be well. Complete skin examination was performed. The entire skin appeared to be normal aside from three lesions of depigmentation: (1) a 1.5×1.2 cm white patch on the mid right abdomen; (2) a 1.3×1.0 cm white patch on the dorsum of right third metacarpal head; and (3) a 1.0×0.8 cm sized white macule on the dorsum of right 4th metacarpal head.

[1] = system: primary human epidermal melanocytes; assay: Melanocyte survival assay in vitro (growth factor supplement withdrawn), CellTiter-Blue viability; assay type: cell-based; settings: for ability to protect melanocytes: physiological distress
Description: Human neonatal epidermal melanocytes (HEMn-DP) were purchased from ThermoFisher Scientific™ (C-202-5C). Melanocytes were cultured in full growth medium (Medium 254 supplemented with Human Melanocyte Growth Supplement, both purchased from ThermoFisher Scientific™. Cells were expanded and passaged 3 times before conducting the assay. 4×10^3 melanocytes per well were seeded into 96 well plate and allowed to recover for 4 hours before the treatment was added for each condition in 100 μl final volume. Cells were treated and kept in 37° C., 5% CO2 for 3 days. Viability assay was conducted using CellTiter-Blue Cell Viability Assay Kit™ (Promega™, G8080) and signal was measured using GlowMax™ plate reader (Promega™) after 4 hours at 37° C., 5% CO2. Merasin 1 (Cayman™) was diluted into 1 μg/ml using PBS and added to the culture medium at concentrations ranging from 0 to 1 μg/ml. For survival assays, the procedure was essentially the same as proliferation assay except that melanocytes were kept in M254 medium without human melanocyte growth supplement. The assays were conducted in triplicates.

B6 mouse canities model = assay: B6 mouse model of canities (spontaneous hair greying) and aging-associated weight gain; assay type: in vivo, C57BL/J6 mice; settings: 800 ng maresin 1 IP three times a week
Description: To observe aging-associated spontaneous hair greying (canities), C57BL/J6 mice aged 8 weeks were purchased from JAX Labs™ and kept in standard conditions for 8 weeks. The fur color as well as overall appearance and behaviors were monitored daily by visual inspection and by photography. By 6-8 weeks, about 20-40% of the mice would develop spontaneous canities. At the end of observation, central venous blood was collected and used for ELISA analysis using maresin 1 ELISA kit (Caymen Chemicals™) following the manufacturers' recommended protocol with purified maresin 1 serving as the chemical standard.
C57BL/J6 mice from The Jackson Laboratory™, 8 weeks of age were divided into two groups that received intraperitoneal injections of maresin 1 (800 ng in 100 μl saline) or saline alone three times a week for 6 weeks. […] At the end of the experiment, the mice were photographed and weighed.

B6 mouse Vitiligo model = assay: B6 mouse model of vitiligo with TRP2 immunization; assay type: in vivo, C57BL/J6 mice
Description: ([…], Deming Regression). * p<0.05 (two tailed t test).
Eight week old female C57BL/J6 mice were ordered from The Jackson Laboratory™, and fed a standard diet of Animal Care Facility of Vancouver Coastal Health Research institute (4 mice/cage). For induction of vitiligo, mice were immunized by intradermal injections (ID, starting at Day 0) at the left hock, and repeated at 2-week, using the method described by S. You et al. that efficiently induces melanocyte specific CD8+ T cell responses^(53). The immunogen consisted of TRP2-180 (50 μg) peptide mixed with LPS (5 μg) and CpG ODN 1826 (5 μg) in 50 μL of PBS solution per mouse per injection. Immunization response score was recorded at 48 hours after the first immunization by evaluating the redness and swelling (0=none, 1=mild, 2=moderate, 3=severe). For assessing macrophage M1 and M2 populations, the TRP-immunized and non-immunized mice were anaesthetized 48 hours after immunization for skin sampling at the immunization site and used for cell isolation as described above.
For assessing the effects of maresin 1 treatment, C57BL/J6 mice were randomly assigned to the sham injection control group (200 μl saline IP, n=20) and the Maresin 1 injection group (800 ng in 200 μl saline IP, n=20). […] Mice were monitored 5 times per week and evaluated using a Depigmentation Area Scoring Template (0-5) (FIG. 5C). […]

[2] = system: skin resident M2 macrophages; assay: Skin resident M1 (CD80+) / M2 (CD163+) macrophages by flow cytometry in B6 mice with or without maresin 1; assay type: in vivo, C57BL/J6 mice
Description: For isolation of macrophages from murine skin: 1 cm×1 cm sized skin samples were cut into small pieces, placed in a solution of PBS containing 1 mg/ml dispase (Roche™) and incubated for 1 hour at 37° C. The samples were then transferred into RPMI containing 1 mg/ml Collagenase IV and 0.1 mg/ml DNAse (Sigma Aldrich™) and incubated for 90 minutes at 37° C. Single cell suspension was prepared by passing through 100 μm strainer. Cells were washed and stained in PBS without Ca^2+ and Mg^2+ supplemented with 1% heat-inactivated FCS. Cell surface staining panel included anti-mouse CD163-BV421™, CD80-Alexa fluor 647™, and CD11b-Percp Cy5.5™ (Biolegend™) for 30 minutes at 4° C. Cells were washed with PBS and analyzed with LSRII™ cell sorter (BD Biosciences™).
Eight week old female C57BL/J6 mice were ordered from The Jackson Laboratory™, and fed a standard diet of Animal Care Facility of Vancouver Coastal Health Research institute (4 mice/cage). For induction of vitiligo, mice were immunized by intradermal injections (ID, starting at Day 0) at the left hock, and repeated at 2-week, using the method described by S. You et al. that efficiently induces melanocyte specific CD8+ T cell responses^(53). […] Immunization response score was recorded at 48 hours after the first immunization by evaluating the redness and swelling (0=none, 1=mild, 2=moderate, 3=severe). […]

[3] = cultured human epidermal melanocytes

Compound: C[C@H]1C[C@H]2[C@@H]3CCC4=CC(=O)C=C[C@]4(C)[C@@]3(F)[C@@H](O)C[C@]2(C)[C@@]1(O)C(=O)CCl [clobetasol, reference compound]
- change in the size of the white areas (vitiligo patches): did not notice any change

Compound: CC/C=C\C/C=C\C[C@H](O)[C@H](O)/C=C/C=C/C=C\C/C=C\CCC(=O)O [maresin 2, 13R,14S-dihydroxy-4Z,7Z,9E,11E,16Z,19Z-docosahexaenoic acid]
- ability to protect melanocytes [1, 3]: show ability to protect melanocytes

Compound: CC[C@@H](O)/C=C/C=C\C[C@@H](O)/C=C/C=C/C=C\[C@@H](O)CCCC(=O)O [resolvin E1, 5S,12R,18R-trihydroxy-6Z,8E,10E,14Z,16E-eicosapentaenoic acid]
- ability to protect melanocytes [1, 3]: show ability to protect melanocytes

Compound: mometasone fumarate [reference compound]
- change in the size of the white areas (vitiligo patches): did not notice any change

Compound: CC/C=C\C[C@H](O)[C@H](O)/C=C/C=C/C=C\C=C\[C@@H](O)C/C=C\CCC(=O)O [resolvin D2, 7S,16R,17S-trihydroxy-4Z,8E,10Z,12E,14E,19Z-docosahexaenoic acid]
- ability to protect melanocytes [1, 3]: show ability to protect melanocytes

Compound: CCCCC[C@H](O)/C=C/C=C\C=C\C=C\[C@@H](O)[C@@H](O)CCCC(=O)O [lipoxin A4, reference compound]
- pro-survival effects on the melanocytes in vitro ([1]; SPMs 0 to 300 ng/ml, cultured human epidermal melanocytes): significantly decreased melanocyte survival
- ability to protect melanocytes [1, 3]: accelerated melanocyte depletion

Compound: CC/C=C\C[C@H](O)\C=C/C=C/C=C/[C@H](O)C/C=C\C/C=C\CCC(=O)O [protectin D1, 10R,17S-dihydroxy-4Z,7Z,11E,13E,15Z,19Z-docosahexaenoic acid]
- ability to protect melanocytes [1, 3]: show ability to protect melanocytes

Compound: CCCCC[C@@H](O)[C@H](O)/C=C/C=C/C=C\C=C\[C@@H](O)CCCC(=O)O [lipoxin B4, 5S,14R,15S-trihydroxy-6E,8Z,10E,12E-eicosatetraenoic acid]
- ability to protect melanocytes [1, 3]: show ability to protect melanocytes

Compound: CC/C=C\C/C=C\C[C@H](O)\C=C/C=C/C=C/[C@H](O)C/C=C\CCC(=O)O [maresin 1, 7R, 14S-dihydroxy-4Z, 8E, 10E, 12Z, 16Z, 19Z-docosahexaenoic acid]
- canities development (B6 mouse canities model; saline control 15% by 15 weeks of age, p<0.0125 Log Rank): completely blocked
- aging associated weight gain (B6 mouse canities model; saline control 17.7%, p=0.0423): 14.2%
- vitiligo development (average depigmentation score at immunization site) (B6 mouse Vitiligo model; maresin 1 800 ng/mouse IP three times per week for 8 weeks vs saline (sham)): significant reduction of vitiligo development
- immunization response (peak score, erythema + edema) (B6 mouse Vitiligo model; maresin 1 800 ng/mouse IP, 48 hours after TRP2 immunization, vs saline): significantly reduced the immunization response
- repigmentation (vitiligo patches; 0.01% maresin 1 in ethanol twice daily, by the end of three months): significant repigmentation
- decrease of lesion area, third lesion (vitiligo patches; 0.01% maresin 1 in ethanol twice daily, three months, 1.0×0.8 cm macule right 4th metacarpal head): 11.1%
- decrease of lesion area, second lesion (vitiligo patches; 0.01% maresin 1 in ethanol twice daily, three months, 1.3×1.0 cm patch right third metacarpal head): 10.5%
- decrease of lesion area, first lesion (vitiligo patches; 0.01% maresin 1 in ethanol twice daily, three months, 1.5×1.2 cm patch mid right abdomen): 13.6%
- adverse events such as irritation, itchiness or redness (vitiligo patches; 0.01% maresin 1 in ethanol, topical twice daily): did no notice any adverse events
- decrease of the areas of the three depigmented lesions (overall) (vitiligo patches; ethanol solution containing 0.01% maresin 1 twice daily, three months): 11.7%
- ability to protect melanocytes [1, 3]: show ability to protect melanocytes
- melanocyte depletion (surviving melanocytes) after growth factor supplement withdrawal ([1]; maresin 1 10 to 300 ng/ml, three days, p<0.01): significant reduction of melanocyte depletion
- melanocyte depletion caused by growth factor withdrawal ([1]; three days in culture, no growth factor supplement): markedly reducing melanocyte depletion
- post-immunization M2/M1 ratio at the TRP2 immunization site ([2]; maresin 1 800 ng/mouse IP pretreatment, skin 48 hours after TRP2 immunization, CD163+/CD80+ cells): restoring the post-immunization M2/M1 ratio to a level above the pre-immunization state
- M2/M1 ratio in the skin of B6 mice ([2]; maresin 1 treatment, increase from 0.44): 5.34
